# Experimental data taken from publication PMC11912728, “L-asparaginase from the novel Fusarium falciforme AUMC 16563: extraction, purification, characterization, and cytotoxic effects on PC-3, HePG-2, HCT-116, and MCF-7 cell lines” (BMC Microbiology, 2025).
# System: T1, L-asparaginase (pure asparaginase) from Fusarium falciforme AUMC 16563
# T1 construct: native extracellular enzyme purified from culture supernatant (ethanol, DEAE-cellulose, Sephacryl S-200 HR)
# Experiment: Nesslerization (ammonia release, […] nm), Lineweaver-Burk
# Assay type: biochemical
# Settings: substrate 2.0-20.0 mM; pH and temperature of the kinetic assay not given
row,Compound,Km [mM]
1,NC(=O)C[C@H](N)C(=O)O [L-asparagine],0.0577
2,NC(=O)CC[C@H](N)C(=O)O [L-glutamine],9.12
3,N[C@@H](CC(=O)O)C(=O)O [aspartic acid],10.1
4,N[C@@H](CCC(=O)O)C(=O)O [glutamic acid],12.2
